Test results from PubChem BioAssay (NCI).
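Cells were grown in 96-well plates and exposed to each compound for 48 hours at five concentrations; endpoints were interpolated linearly between bracketing concentrations, or set to the highest concentration if not reached. Here, GI50 denotes the concentration required for 50% inhibition of growth. TGI: concentration producing complete growth inhibition.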

Key:
Experiment in all cases: DTP human tumour cell line panel, 48 h
IGROV1 ovarian = system: IGROV1 ovarian
SK-MEL-28 melanoma = system: SK-MEL-28 melanoma
LOX IMVI melanoma = system: LOX IMVI melanoma
TK-10 renal = system: TK-10 renal
KM12 colon = system: KM12 colon
NCI-H23 lung = system: NCI-H23 lung
UACC-62 melanoma = system: UACC-62 melanoma
SF-539 CNS = system: SF-539 CNS
OVCAR-4 ovarian = system: OVCAR-4 ovarian
MALME-3M melanoma = system: MALME-3M melanoma
SK-OV-3 ovarian = system: SK-OV-3 ovarian
SNB-75 CNS = system: SNB-75 CNS
RPMI-8226 leukemia = system: RPMI-8226 leukemia
COLO 205 colon = system: COLO 205 colon
MDA-MB-435 = system: MDA-MB-435
CCRF-CEM leukemia = system: CCRF-CEM leukemia
OVCAR-3 ovarian = system: OVCAR-3 ovarian
CAKI-1 renal = system: CAKI-1 renal
BT-549 breast = system: BT-549 breast
ACHN renal = system: ACHN renal
U251 CNS = system: U251 CNS
HCT-116 colon = system: HCT-116 colon
HCC-2998 colon = system: HCC-2998 colon
HT29 colon = system: HT29 colon
HOP-62 NSCLC = system: HOP-62 NSCLC
M14 melanoma = system: M14 melanoma
UO-31 renal = system: UO-31 renal
NCI-H226 lung = system: NCI-H226 lung
HOP-92 NSCLC = system: HOP-92 NSCLC
SW-620 colon = system: SW-620 colon
MCF7 breast = system: MCF7 breast
HL-60(TB) leukemia = system: HL-60(TB) leukemia
OVCAR-5 ovarian = system: OVCAR-5 ovarian
OVCAR-8 ovarian = system: OVCAR-8 ovarian
A549 NSCLC = system: A549 NSCLC
MDA-MB-231 breast = system: MDA-MB-231 breast
SN12C renal = system: SN12C renal
EKVX NSCLC = system: EKVX NSCLC
DU-145 prostate = system: DU-145 prostate
NCI-H522 lung = system: NCI-H522 lung
HCT-15 colon = system: HCT-15 colon
A498 renal = system: A498 renal
SK-MEL-5 melanoma = system: SK-MEL-5 melanoma
SF-268 CNS = system: SF-268 CNS
NCI/ADR-RES ovarian = system: NCI/ADR-RES ovarian
PC-3 prostate = system: PC-3 prostate
T-47D breast = system: T-47D breast
SNB-19 CNS = system: SNB-19 CNS
SF-295 CNS = system: SF-295 CNS
786-0 renal = system: 786-0 renal
NCI-H460 lung = system: NCI-H460 lung
UACC-257 melanoma = system: UACC-257 melanoma
K-562 leukemia = system: K-562 leukemia

O=c1[nH]c2ccccc2cc1-c1nc2ccc(Cl)cc2[nH]1
GI50 (IGROV1 ovarian): 1360 nM
TGI (IGROV1 ovarian): > 100 µM
GI50 (SK-MEL-28 melanoma): 6.66 µM
TGI (SK-MEL-28 melanoma): 45.7 µM
GI50 (LOX IMVI melanoma): 4.43 µM
TGI (LOX IMVI melanoma): > 100 µM
GI50 (TK-10 renal): 2510 nM
TGI (TK-10 renal): > 100 µM
GI50 (KM12 colon): 385 nM
TGI (KM12 colon): > 100 µM
GI50 (NCI-H23 lung): 4.7 µM
TGI (NCI-H23 lung): > 100 µM
GI50 (UACC-62 melanoma): 2830 nM
TGI (UACC-62 melanoma): > 100 µM
GI50 (SF-539 CNS): 4.13 µM
TGI (SF-539 CNS): 17.2 µM
GI50 (OVCAR-4 ovarian): 5.09 µM
TGI (OVCAR-4 ovarian): > 100 µM
GI50 (MALME-3M melanoma): > 100 µM
TGI (MALME-3M melanoma): > 100 µM
GI50 (SK-OV-3 ovarian): 2220 nM
TGI (SK-OV-3 ovarian): 8.01 µM
GI50 (SNB-75 CNS): 2980 nM
TGI (SNB-75 CNS): > 100 µM
GI50 (RPMI-8226 leukemia): 1420 nM
TGI (RPMI-8226 leukemia): 6.78 µM
GI50 (COLO 205 colon): 3.25 µM
TGI (COLO 205 colon): > 100 µM
GI50 (MDA-MB-435): 4.39 µM
TGI (MDA-MB-435): > 100 µM
GI50 (CCRF-CEM leukemia): 3.24 µM
TGI (CCRF-CEM leukemia): > 100 µM
GI50 (OVCAR-3 ovarian): 2370 nM
TGI (OVCAR-3 ovarian): 7.25 µM
GI50 (CAKI-1 renal): 1020 nM
TGI (CAKI-1 renal): > 100 µM
GI50 (BT-549 breast): 2990 nM
TGI (BT-549 breast): > 100 µM
GI50 (ACHN renal): 2450 nM
TGI (ACHN renal): > 100 µM
GI50 (U251 CNS): 3.87 µM
TGI (U251 CNS): > 100 µM
GI50 (HCT-116 colon): 2660 nM
TGI (HCT-116 colon): 21.4 µM
GI50 (HCC-2998 colon): 11 µM
TGI (HCC-2998 colon): > 100 µM
GI50 (HT29 colon): 4.24 µM
TGI (HT29 colon): > 100 µM
GI50 (HOP-62 NSCLC): 6.79 µM
TGI (HOP-62 NSCLC): 59.3 µM
GI50 (M14 melanoma): 2860 nM
TGI (M14 melanoma): > 100 µM
GI50 (UO-31 renal): 3.31 µM
TGI (UO-31 renal): > 100 µM
GI50 (NCI-H226 lung): 2710 nM
TGI (NCI-H226 lung): > 100 µM
GI50 (HOP-92 NSCLC): 1480 nM
TGI (HOP-92 NSCLC): 9.29 µM
GI50 (SW-620 colon): 4.81 µM
TGI (SW-620 colon): > 100 µM
GI50 (MCF7 breast): 1400 nM
TGI (MCF7 breast): > 100 µM
GI50 (HL-60(TB) leukemia): 3.24 µM
TGI (HL-60(TB) leukemia): 10.4 µM
GI50 (OVCAR-5 ovarian): 51.7 µM
TGI (OVCAR-5 ovarian): > 100 µM
GI50 (OVCAR-8 ovarian): 6.51 µM
TGI (OVCAR-8 ovarian): > 100 µM
GI50 (A549 NSCLC): 5.15 µM
TGI (A549 NSCLC): > 100 µM
GI50 (MDA-MB-231 breast): 3.25 µM
TGI (MDA-MB-231 breast): 85.9 µM
GI50 (SN12C renal): 3.17 µM
TGI (SN12C renal): > 100 µM
GI50 (EKVX NSCLC): 2350 nM
TGI (EKVX NSCLC): > 100 µM
GI50 (DU-145 prostate): 7.68 µM
TGI (DU-145 prostate): 64.2 µM
GI50 (NCI-H522 lung): 6.79 µM
TGI (NCI-H522 lung): > 100 µM
GI50 (HCT-15 colon): 2910 nM
TGI (HCT-15 colon): > 100 µM
GI50 (A498 renal): 2480 nM
TGI (A498 renal): 15.7 µM
GI50 (SK-MEL-5 melanoma): 3.4 µM
TGI (SK-MEL-5 melanoma): 32.5 µM
GI50 (SF-268 CNS): 6.09 µM
TGI (SF-268 CNS): > 100 µM
GI50 (NCI/ADR-RES ovarian): 6.09 µM
TGI (NCI/ADR-RES ovarian): > 100 µM
GI50 (PC-3 prostate): 3.71 µM
TGI (PC-3 prostate): 29.1 µM
GI50 (T-47D breast): 3.33 µM
TGI (T-47D breast): > 100 µM
GI50 (SNB-19 CNS): 29.8 µM
TGI (SNB-19 CNS): > 100 µM
GI50 (SF-295 CNS): 9.63 µM
TGI (SF-295 CNS): > 100 µM
GI50 (786-0 renal): 7.42 µM
TGI (786-0 renal): > 100 µM
GI50 (NCI-H460 lung): 2610 nM
TGI (NCI-H460 lung): > 100 µM
GI50 (UACC-257 melanoma): 13.9 µM
TGI (UACC-257 melanoma): > 100 µM
GI50 (K-562 leukemia): 3.85 µM
TGI (K-562 leukemia): > 100 µM
